Experimental data taken from patent publication US20020002171A1, “Materials and methods for killing nematodes and nematode eggs” (priority 2000, published 2002).

Test system: Caenorhabditis elegans
Experiment: C. elegans L1 nematicidal dose response in 96-well plates, 5 day visual score (Example 2; same procedure for Example 7, Table 3)
Assay type: in vivo
Design: key to 5 Day Visual Score V1 / 5 Day Visual Score V2 / 5 Day Visual Score V3 / 5 Day Visual Score V4 / 5 Day Visual Score V6 / 5 Day Visual Score V5 / Initial HTS Run Visual Score / Follow-up HTS Run Visual Score: Dead: only stiff L1s (no movement); Dead (L4): worms are dead, but at a later larval stage; majority of worms are L1 (based on size) worms move when plate is tapped; majority of worms are L2 (based on size); majority of worms are L3 (based on size); majority of worms are L4 (based on size); AD: majority of worms are adult; #AD: 5 adult worms or less; B!: sterile (0-25 progeny); B: low broodsize (25-100 progeny); ˜B: moderate broodsize (100-250 progeny); <: reduced broodsize (250-500 progeny); OK: no effect (˜1000+ progeny)
Outline: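 L1 larvae, 20 per well in NGM with 1% E. coli HB101 and antibiotic/antimycotic, exposed to six 3-fold dilutions from 70 μM down to 0.3 μM (1.4% DMSO at top). Held at 20° C; viability scored visually under 100× dissecting microscope on day 5.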

[1] = dose response, dilution V1, 5 day
[2] = dose response, dilution V4, 5 day
[3] = dose response, dilution V5, 5 day
[4] = dose response, dilution V6, 5 day
[5] = dose response, dilution V1, day 5
[6] = dose response, dilution V2, day 5
[7] = dose response, dilution V3, day 5
[8] = dose response, dilution V4, day 5
[9] = dose response, dilution V5, day 5
[10] = dose response, dilution V6, day 5
[11] = dose response, dilution V3, 5 day

Row | Structure (SMILES) | Follow-up HTS Run % Run | Follow-up HTS Run mOD | Initial HTS Run % Run | Initial HTS Run mOD | Follow-up HTS Run Visual Score | 5 Day Visual Score V1 [5] | 5 Day Visual Score V2 [6] | 5 Day Visual Score V3 [7] | 5 Day Visual Score V4 [8] | 5 Day Visual Score V5 [9] | 5 Day Visual Score V6 [10] | Initial HTS Run Visual Score | also measured
1 | Fc1ccc(N2CCN(c3nc(NCc4ccccc4)ns3)CC2)cc1 [compound 324] | 34% | 54 mOD | 114% | 125 mOD |  |  |  |  |  |  |  |  | 5 Day Visual Score V1 [1]: L1; 5 Day Visual Score V4 [2]: OK (no effect (˜1000+ progeny)); 5 Day Visual Score V5 [3]: < (reduced broodsize (250-500 progeny)); 5 Day Visual Score V6 [4]: OK (no effect (˜1000+ progeny))
2 | CCCCNc1nsc(N2CCN(c3cccc(C(F)(F)F)c3)CC2)n1 [compound 224] | 122% | 196 mOD | 143% | 157 mOD | L1 | Dead | Dead | < (reduced broodsize (250-500 progeny)) | OK (no effect (˜1000+ progeny)) | OK (no effect (˜1000+ progeny)) | OK (no effect (˜1000+ progeny)) |  | 
3 | CN(Cc1ccccc1)c1nc(NCc2ccc(C(F)(F)F)cc2)ns1 [compound 315] | 118% | 190 mOD | 112% | 123 mOD |  |  |  |  |  |  |  |  | 5 Day Visual Score V1 [1]: L1; 5 Day Visual Score V4 [2]: ˜B (moderate broodsize (100-250 progeny)); 5 Day Visual Score V5 [3]: OK (no effect (˜1000+ progeny)); 5 Day Visual Score V6 [4]: < (reduced broodsize (250-500 progeny))
4 | CCOc1ccc(C2ON=C(c3ccc(F)cc3)C2C(=O)NCCc2ccc(F)cc2)cc1 (stereo not shown) [AKC 122] |  |  |  |  |  |  |  |  |  |  |  |  | 5 Day Visual Score V6 (0.3 μM, C. elegans L1, scored day 5): OK (no effect (˜1000+ progeny)); 5 Day Visual Score V2 (23.3 μM, C. elegans L1, scored day 5): L1; 5 Day Visual Score V1 (70 μM, C. elegans L1, scored day 5): Dead
5 | CCCCCCCCCCNc1nsc(N(CC(CC)CCCC)CC(CC)CCCC)n1 (stereo not shown) [compound 278] | 109% | 175 mOD | 112% | 123 mOD | Dead | Dead | Dead | ˜B (moderate broodsize (100-250 progeny)) | OK (no effect (˜1000+ progeny)) | OK (no effect (˜1000+ progeny)) | OK (no effect (˜1000+ progeny)) | Dead | 
6 | COCCN(CCOC)c1nc(N2CCN(c3c(C)cccc3C)CC2)ns1 [compound 221] | 84% | 136 mOD | 97% | 107 mOD | 5AD/B | #AD/˜B |  | OK (no effect (˜1000+ progeny)) | OK (no effect (˜1000+ progeny)) | OK (no effect (˜1000+ progeny)) | OK (no effect (˜1000+ progeny)) | L4/AD/B | 
7 | CCCCCCCCCCNc1nsc(N(CC)Cc2ccccc2)n1 [compound 280] | 122% | 196 mOD | 144% | 158 mOD | Dead | Dead | Dead | ˜B (moderate broodsize (100-250 progeny)) | OK (no effect (˜1000+ progeny)) | OK (no effect (˜1000+ progeny)) | OK (no effect (˜1000+ progeny)) | Dead | 
8 | Fc1ccc(N2CCN(c3nc(NCCc4ccc(Oc5ccccc5)cc4)ns3)CC2)cc1 [compound 268] | 96% | 154 mOD | 128% | 141 mOD | Dead | Dead | Dead |  | L4#AD/B | OK (no effect (˜1000+ progeny)) | B (low broodsize (25-100 progeny)) | Dead | 
9 | CN(CCc1ccccc1)c1nc(NC2CCCCCCCCCCC2)ns1 [AKC 335] | 82% | 132 mOD | 104% | 114 mOD | Dead | Dead | Dead | Dead |  |  | OK (no effect (˜1000+ progeny)) | Dead | 
10 | CCCCCCCCCCNc1nsc(N(CCCC)Cc2ccccc2)n1 [compound 279] | 131% | 211 mOD | 144% | 158 mOD | Dead | Dead | Dead |  | OK (no effect (˜1000+ progeny)) | OK (no effect (˜1000+ progeny)) | OK (no effect (˜1000+ progeny)) | Dead | 
11 | COc1ccc(CCN(C)c2nc(NC3CCCCCCCCCCC3)ns2)cc1OC [compound 337] | 68% | 110 mOD | 90% | 99 mOD | Dead |  |  |  |  |  |  | Dead | 5 Day Visual Score V1 [1]: Dead; 5 Day Visual Score V2 (dose response, dilution V2, 5 day): Dead; 5 Day Visual Score V3 [11]: Dead; 5 Day Visual Score V4 [2]: B (low broodsize (25-100 progeny)); 5 Day Visual Score V5 [3]: OK (no effect (˜1000+ progeny)); 5 Day Visual Score V6 [4]: OK (no effect (˜1000+ progeny))
12 | Fc1ccc(CCNc2nsc(N3CCN(c4cccc(C(F)(F)F)c4)CC3)n2)cc1 [compound 225] | 107% | 172 mOD | 114% | 125 mOD |  |  |  | ˜B (moderate broodsize (100-250 progeny)) | OK (no effect (˜1000+ progeny)) | OK (no effect (˜1000+ progeny)) | OK (no effect (˜1000+ progeny)) |  | 
13 | CN(CCO)c1nc(NCc2ccc(C(F)(F)F)cc2)ns1 [compound 256] | 112% | 180 mOD | 106% | 117 mOD | L2 - Dead L3 | Dead |  | OK (no effect (˜1000+ progeny)) | OK (no effect (˜1000+ progeny)) | OK (no effect (˜1000+ progeny)) | OK (no effect (˜1000+ progeny)) | L2 - (Dead L3) | 
14 | FC(F)(F)c1cccc(N2CCN(c3nc(Cl)ns3)CC2)c1 [compound 338] | 116% | 186 mOD | 94% | 103 mOD | B (low broodsize (25-100 progeny)) |  |  |  |  |  |  | 3AD/B | 5 Day Visual Score V1 [1]: Dead; 5 Day Visual Score V3 [11]: < (reduced broodsize (250-500 progeny)); 5 Day Visual Score V4 [2]: OK (no effect (˜1000+ progeny)); 5 Day Visual Score V5 [3]: OK (no effect (˜1000+ progeny)); 5 Day Visual Score V6 [4]: < (reduced broodsize (250-500 progeny))
